Publication PMC3220680, “Microsecond Molecular Dynamics Simulations of Intrinsically Disordered Proteins Involved in the Oxidative Stress Response” (PLoS ONE, 2011)
Like-named read-outs stand apart in the source and are kept apart here. Blank lines part the entries; values can stand above or below the molecule they belong to.

Columns and labels:
[1] = test system: Kelch domain of mouse Keap1 (residues 324–612); test: ITC binding of mouse peptides to Kelch domain of Keap1
Protocol: The Kelch domain (residues 324–612) of mouse Keap1 was expressed in Escherichia coli BL21 (DE3) grown in minimal M9 medium. The N-terminally His-tagged protein was purified by affinity chromatography using Ni Sepharose™ 6 Fast Flow beads (Amersham Biosciences). The tag was then cleaved by incubation with His-tagged tobacco etch virus (TEV) protease overnight at 25°C. The protein product was purified by passing the mixture through Ni Sepharose™ 6 Fast Flow beads (Amersham Biosciences).
ITC experiments were performed on a VP-ITC system (MicroCal) at 25°C. The Kelch domain was dialyzed against 50 mM phosphate buffer at pH 7, containing 100 mM NaCl and 1 mM DTT. Mouse ProTα (Ala-39 to Asp-54) and Neh2 (Leu-76 to Leu-84) peptides (GenScript) were also dissolved in the same buffer. All samples were filtered and degassed before the ITC experiments. […] Heat changes after saturation were used to account for the heat of dilution. The binding stoichiometries (n), enthalpy changes (ΔH), binding constants (Ka), Gibbs free energy changes (ΔG) and entropy changes (ΔS) were calculated using the titration data.
Supplementary file pone.0027371.s006.tif: Figure S4 Isothermal titration calorimetry (ITC) measurements. […] (Upper) The raw data of two ITC experiments each performed at 25°C. (Lower) The integrated heat changes, corrected for the heat of dilution, and the fitted curve assuming single-site binding. (TIF) Click here for additional data file.

[2] = target: Keap1 Kelch (Homo sapiens) (UniProt Q14145); test: ITC; details: cited from earlier work
Sequence of Keap1 Kelch (Homo sapiens) (Q14145 321-609): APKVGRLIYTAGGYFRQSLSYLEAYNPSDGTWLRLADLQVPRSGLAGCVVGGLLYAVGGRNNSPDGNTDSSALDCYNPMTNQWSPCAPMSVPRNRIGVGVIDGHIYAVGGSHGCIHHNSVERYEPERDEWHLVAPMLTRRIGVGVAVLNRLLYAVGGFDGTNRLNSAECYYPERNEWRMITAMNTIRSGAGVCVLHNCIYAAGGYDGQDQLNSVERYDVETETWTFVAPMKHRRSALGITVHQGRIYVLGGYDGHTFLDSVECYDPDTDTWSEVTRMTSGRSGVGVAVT

[3] = target: Keap1 Kelch (Mus musculus) (UniProt Q9Z2X8); test: ITC; details: cited from earlier work
Sequence of Keap1 Kelch (Mus musculus) (Q9Z2X8 309-624): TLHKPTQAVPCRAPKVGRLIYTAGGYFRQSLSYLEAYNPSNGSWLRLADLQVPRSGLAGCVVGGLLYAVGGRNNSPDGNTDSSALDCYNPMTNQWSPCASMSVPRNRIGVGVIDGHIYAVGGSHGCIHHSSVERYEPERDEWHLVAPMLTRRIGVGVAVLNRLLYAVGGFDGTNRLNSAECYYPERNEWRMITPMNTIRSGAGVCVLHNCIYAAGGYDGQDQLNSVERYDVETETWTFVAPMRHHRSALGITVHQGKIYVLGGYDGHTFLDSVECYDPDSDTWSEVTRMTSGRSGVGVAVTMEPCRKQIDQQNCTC

[4] = target: Keap1 Kelch (Mus musculus) (UniProt Q9Z2X8); details: cited from earlier work
Kelch domain of Keap1 = details: ITC; ref [79]; cited from earlier work
Keap1 = details: cited from earlier work; for competition with full-length Nrf2 for binding to Keap1: compared with 10-mer peptide (LDEETGEFLP), ref [79]
[5] = test system: Nrf2-targeted cytoprotective genes; details: ref [49], [50]; cited from earlier work
From the text: The Keap1-binding motif of ProTα (-NEENGE-) shares a similar sequence with that of the Neh2 ...

[6] = target: T1, Kelch domain (residues 324–612) of mouse Keap1 (mouse, UniProt Q9Z2X8 324-612); test: ITC; VP-ITC (MicroCal), 25°C; 5 µL aliquots of 0.5 mM peptide titrated into 1.4 mL of 0.05 mM Kelch in the cell; 50 mM phosphate pH 7, 100 mM NaCl, 1 mM DTT; single-site fit; details: both partners purified
T1 construct: Kelch domain of Kelch-like ECH-associated protein 1 (Keap1), mouse, residues 324-612; His tag cleaved with TEV protease; also called Kelch-like ECH-associated protein 1; source: Escherichia coli BL21 (DE3) in minimal M9 medium, purified (Ni Sepharose, TEV cleavage, second Ni Sepharose pass); not shown: His tag, N-terminal, cleaved
T1 sequence (Q9Z2X8 324-612): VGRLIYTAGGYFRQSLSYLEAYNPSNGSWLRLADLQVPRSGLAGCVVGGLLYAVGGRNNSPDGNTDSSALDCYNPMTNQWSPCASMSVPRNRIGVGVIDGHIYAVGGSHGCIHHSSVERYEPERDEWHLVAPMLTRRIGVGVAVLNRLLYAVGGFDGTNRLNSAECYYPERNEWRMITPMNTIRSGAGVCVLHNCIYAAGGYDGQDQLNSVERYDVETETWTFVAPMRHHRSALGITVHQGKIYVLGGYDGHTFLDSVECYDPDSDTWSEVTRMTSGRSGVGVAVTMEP

[7] = ITC, T = 298 K, pH 7, 50 mM phosphate, 100 mM NaCl, 1 mM DTT

Ka (binding constant) ([1]; ITC (VP-ITC), 25°C (T = 298 K), 50 mM phosphate pH 7, 100 mM NaCl, 1 mM DTT, 0.5 mM peptide titrated into 0.05 mM Kelch, single-site fit): 2.4 ± 0.1 10^6 M^−1 | TΔS (entropy change upon binding) [1, 7]: -10.20 kcal/mol | ΔG (Gibbs free energy change upon binding) [1, 7]: -8.70 ± 0.02 kcal/mol
Molecule: AQNEENGEQEADNEVD [16-mer ProTα peptide, Mouse ProTα (Ala-39 to Asp-54) peptide (GenScript)]
relative binding to Keap1 ([1]; 16-mer ProTα vs Neh2 peptide with the same length, own ITC compared with ref [79]): interacts more weakly with Keap1 compared to the Neh2 peptide with the same length

Molecule: Nrf2 16-mer peptide 16-mer ETGE peptide (from UniProt Q16236)
Kd [2]: 20 nM

Molecule: Nrf2 Neh2 (ETGE motif) Neh2 (from UniProt Q60795)
Kd [3]: 8 nM

Molecule: Nrf2 Neh2 (DLG motif) Neh2 (from UniProt Q60795)
Kd [4]: 500 nM

Molecule: AFFAQLQLDEETGEFL
Kd (Kelch domain of Keap1): ~20 nM | competition with full-length Nrf2 for binding to Keap1 (Keap1): could compete with full-length Nrf2 for binding to Keap1 much better than a 10-mer peptide (LDEETGEFLP)

Molecule: LQLDEETGEFLPIQ
competition with full-length Nrf2 for binding to Keap1 (Keap1): could compete with full-length Nrf2 for binding to Keap1 much better than a 10-mer peptide (LDEETGEFLP)

Molecule: MSDAAVDTSSEITTKDLKEKKEVVEEAENGRDAPANGNAQNEENGEQEADNEVDEEEEEGGEEEEEEEEGDGEEEDGDEDEEAEAPTGKRVAEDDEDDDVDTKKQKTEEDD [Full-length ProTα, Prothymosin alpha, full-length mouse ProTα protein, simulated]
competition with Nrf2 for binding to Keap1 (Keap1; ref [49], [50]): can compete with Nrf2 for binding to Keap1 | Nrf2-targeted cytoprotective genes [5]: upregulation of Nrf2-targeted cytoprotective genes

Ka [6]: 2.4e+06 ± 0.1 M⁻¹ | dH [6]: -18.9 ± 0.1 kcal/mol | stoichiometry N [6]: 1.03
B1: 16-mer ProTα peptide (mouse), Ala-39 to Asp-54 (peptide)
peptide: AQNEENGEQEADNEVD
notes: Prothymosin alpha (ProTα), mouse, residues 39-54; also called Prothymosin alpha peptide; source: synthetic peptide; bought: GenScript
